Measurements reported in US8404709B2, “Substituted 4-aryl-1,4-dihydro-1,6-naphthyridines and use thereof” (Bayer Intellectual Property GmbH, priority 2007, dated 2013).

Target: T1, human mineralocorticoid receptor (MR) (Homo sapiens, UniProt P08235)
T1 construct: expressed in transfected cells; host or cells: CHO K1
T1 sequence (P08235 734-984 limits assumed): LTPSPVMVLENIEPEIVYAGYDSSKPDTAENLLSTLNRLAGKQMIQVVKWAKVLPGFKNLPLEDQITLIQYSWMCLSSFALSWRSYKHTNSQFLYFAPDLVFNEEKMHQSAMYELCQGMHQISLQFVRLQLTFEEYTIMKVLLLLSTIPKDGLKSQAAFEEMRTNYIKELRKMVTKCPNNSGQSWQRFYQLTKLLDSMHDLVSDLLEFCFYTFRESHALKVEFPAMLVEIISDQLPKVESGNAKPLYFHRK
Assay: Cellular in vitro assay to determine the inhibitory MR activity (GAL4-MR chimera, luciferase reporter, CHO K1 cells)
Format: cell-based
Conditions: recombinant CHO K1 cells, GAL4-MR ligand-binding domain chimera, agonist aldosterone, luciferase readout
Description: 1. Cellular In Vitro Assay to Determine the Inhibitory MR Activity and MR Selectivity Compared with other Steroid Hormone Receptors
Antagonists of the human mineralocorticoid receptor (MR) are identified, and the activity of the compounds described herein is quantified with the aid of a recombinant cell line. The cell is originally derived from a hamster ovary epithelial cell (Chinese Hamster Ovary, CHO K1, ATCC: American Type Culture Collection, VA 20108, USA).
An established chimera system in which the ligand-binding domains of human steroid hormone receptors are fused to the DNA-binding domain of the yeast transcription factor GAL4 is used in this CHO K1 cell line. The GAL4-steroid hormone receptor chimeras produced in this way are cotransfected and stably expressed with a reporter construct in the CHO cells.
To generate the GAL4-steroid hormone receptor chimeras, the GAL4 DNA binding domain (amino acids 1-147) from the vector pFC2-dbd (from Stratagene) is cloned with the PCR-amplified ligand-binding domains of the mineralocorticoid receptor (MR, amino acids 734-985), of the glucocorticoid receptor (GR, amino acids 443-777), of the progesterone receptor (PR, amino acids 680-933) and of the androgen receptor (AR, amino acids 667-919) into the vector pIRES2 (from Clontech). The reporter construct, which comprises five copies of the GAL4 binding site upstream of a thymidine kinase promoter, leads to expression of firefly-luciferase (Photinus pyralis) after activation and binding of the GAL4-steroid hormone receptor chimeras by the respective specific agonists aldosterone (MR), dexamethasone (GR), progesterone (PR) and dihydrotestosterone (AR).
The MR, GR, PR and AR cells are plated out in medium (Optimem, 2.5% FCS, 2 mM glutamine, 10 mM HEPES) in 96- (or 384- or 1536-) well microtiter plates on the day before the assay and are kept in a cell incubator (96% humidity, 5% v/v CO2, 37° C.). On the day of the assay, the substances to be tested are taken up in the abovementioned medium and added to the cells. About 10 to 30 minutes after addition of the test substances, the respective specific agonists of the steroid hormone receptors are added. After a further incubation time of 5 to 6 hours, the luciferase activity is measured with the aid of a video camera. The measured relative light units as a function of the substance concentration result in a sigmoidal stimulation curve. The IC50 values are calculated with the aid of the GraphPad PRISM computer program (Version 3.02).

Row | SMILES | IC50 [nM]
1 | CCOc1nccc2c1C(c1cccc3c(=O)cc(C)oc13)C(C#N)=C(C)N2 (stereo not drawn) [Example 4, 5-Ethoxy-2-methyl-4-(2-methyl-4-oxo-4H-chromen-8-yl)-1,4-dihydro-1,6-naphthyridine-3-carbo-nitrite] | 273
2 | CCOc1nc(C)cc2c1C(c1ccc(C#N)cc1OC)C(C#N)=C(C)N2 (stereo not drawn) [Example 35, 4-(4-Cyano-2-methoxyphenyl)-5-ethoxy-2,7-dimethyl-1,4-dihydro-1,6-naphthyridine-3-carbonitrile] | 122
3 | CCS(=O)(=O)Oc1nccc2c1C(c1cccc3c(=O)cc(C)oc13)C(C(C)=O)=C(C)N2 (stereo not drawn) [Example 10, 3-Acetyl-2-methyl-4-(2-methyl-4-oxo-4H-chromen-8-yl)-1,4-dihydro-1,6-naphthyridin-5-yl ethane-sulfonate] | 75
4 | CCOc1ncc(C)c2c1C(c1ccc(C#N)cc1OC)C(C#N)=C(C)N2 (stereo not drawn) [Example 37, 4-(4-Cyano-2-methoxyphenyl)-5-ethoxy-2,8-dimethyl-1,4-dihydro-1,6-naphthyridine-3-carbonitrile] | 73
5 | CCOc1nccc2c1C(c1ccc(C#N)cc1OC)C(C#N)=C(C)N2 (stereo not drawn) [Example 25, 4-(4-Cyano-2-methoxyphenyl)-5-ethoxy-2-methyl-1,4-dihydro-1,6-naphthyridine-3-carbonitrile] | 87
6 | CCOc1nccc2c1C(c1ccc(C#N)cc1OC)C(C#N)=C(C(F)(F)F)N2 (stereo not drawn) [Example 33, 4-(4-Cyano-2-methoxyphenyl)-5-ethoxy-2-(trifluoromethyl)-1,4-dihydro-1,6-naphthyridine-3-carbonitrile] | 35

Next, values leading:

Row | IC50 [nM] | SMILES
7 | 4 | CCOc1nccc2c1C(c1ccc(C#N)c3ccccc13)C(C(C)=O)=C(C)N2 (stereo not drawn) [Example 32, 4-(3-Acetyl-5-ethoxy-2-methyl-1,4-dihydro-1,6-naphthyridin-4-yl)-1-naphthonitrile]
8 | 31 | CCOc1nccc2c1C(c1ccc(C#N)cc1CC)C(C(C)=O)=C(C)N2 (stereo not drawn) [Example 24, 4-(3-Acetyl-5-ethoxy-2-methyl-1,4-dihydro-1,6-naphthyridin-4-yl)-3-ethylbenzonitrile]
9 | 30 | CCOc1nccc2c1C(c1ccc(C#N)cc1OC(F)(F)F)C(C(C)=O)=C(C)N2 (stereo not drawn) [Example 21, 4-(3-Acetyl-5-ethoxy-2-methyl-1,4-dihydro-1,6-naphthyridin-4-yl)-3-(trifluoromethoxy)benzonitrile]
